Take `O=[N+]([O-])c1cccc(C=NO)c1`: the melting point (usually the temperature of the solid-liquid transition) was 124 °C.

In turn, `Cc1cccnc1C#N` returned a melting point of 86 °C.

Turning to `CC1(c2ccccc2)CC(C(=NO)c2cc3cc(Br)ccc3o2)C1` (centres undefined), the melting point is 134 to 135 °C.

`O=C(O)CCSC1=CC(=O)C(SCCC(=O)O)=CC1=O` registered a melting point of 230 to 236 °C.

`Cc1nc2ccc3ccccc3c2o1` showed a melting point of 37 °C.

`O=C1C=C(NCCNc2ccccc2)C(=O)c2ccccc21` yielded a melting point of 140 to 142 °C.

In turn, `O=C(O)c1ccc(Oc2ccccn2)cc1` came in with a melting point of 174 to 175 °C.

`CC1CCC(C)(CO)C1(C)C` (centres undefined) had a melting point of 94 °C.

Regarding `CCOC(=O)OC(=O)C1=CC(C)(C)N(O)C1(C)C`, the melting point was in the range of 64 to 65 °C.

For the molecule `CCc1c(CC)c(CC)c(CC)c(CC)c1CC`, the melting point worked out at 129 °C.

For the molecule `C=C(C)c1cc(=O)c(O)ccc1CC=C(C)C`, the melting point was 71.5 °C.

For `CCCCCCOCCOCCO`, the melting point was -40 °C.

`CC1CCC(C(C)C)C(OC(=O)CC#N)C1` (centres undefined) had a melting point of 84 °C.

For `CCOC(=O)c1nn(-c2ccc(C)cc2)c(C)c1C(=O)c1noc(-c2ccc(C)cc2)c1S(=O)(=O)c1ccccc1`, the melting point stood at 180 °C.

Molecule `CCOC(=O)c1c[nH]c2c(F)c(F)c(F)cc2c1=O` displayed a melting point of 267 to 272 °C.

Consider `c1ccc2c(c1)cc1ccc3cccc4c5ccccc5c2c1c34`, for which the melting point was 162 °C.

Regarding `O=C(O)c1cncnc1`, the melting point fell in the range of 259 to 261 °C.

Turning to `CCO/C=N/c1c(C(=O)OCC)sc2sc(C(=O)OCC)c(/N=C/OCC)c12`, the melting point is 267 °C.

`CC12CCC(/C(=C/N(OC(=O)c3ccc([N+](=O)[O-])cc3)c3ccccc3)C1=O)C2(C)C` (centres undefined) returned a melting point of 180 °C.

In turn, `CCCCCCCCCCCCC(C)CC` (centres undefined) showed a melting point of -22 °C.

As to `OCc1cccc(Cl)c1Cl`, the melting point was in the range of 88 to 94 °C.

In turn, `CCOC(=O)N1CCNCC1` returned a melting point of 120 °C.

`O=C(Cl)c1ncoc1-c1ccccc1` gave a melting point of 74 to 79 °C.

In turn, `CCOOCC` returned a melting point of -70 °C.

On to `CC12CCC(C(=O)/C(=N\O)C1=O)C2(C)C` (centres undefined), for which the melting point came to 109 °C.

In turn, `N#Cc1ccc(Cn2cncn2)cc1` came in with a melting point of 69 to 72 °C.

For the molecule `CC(C)(C)N(NC(=O)c1ccccc1)C(=O)c1ccccc1Br`, the melting point is 196 °C.

The molecule `N#C/C(=C\c1ccc(Cl)cc1Cl)c1nc2ccccc2[nH]1` yielded a melting point of 249 °C.

In turn, `CC(C)(C)C1CCCCC1O` (centres undefined) registered a melting point of 45 °C.

In turn, `O=C1C=C(Nc2ccccc2)C(=O)c2ccccc21` gave a melting point of 193 °C.

With `O=C1C(Cl)=C(Cl)C(=O)C(NCc2ccccc2)=C1Cl`, the melting point came out at 231 °C.

Molecule `CCC(C(=O)O)c1ccccc1C(=O)O` (centres undefined) displayed a melting point of 170 °C.

In the case of `O=C1CCCCCCCCCCCN1`, the melting point came out at 152 °C.

`Cc1cccc(Cl)c1C#N` showed a melting point of 81 °C.

Turning to `COc1c(OC)c(OC(C)=O)c2c(OC)cccc2c1OC(C)=O`, the melting point worked out at 69.5 °C.

Molecule `Ic1cn[nH]c1` had a melting point of 109 °C.

`Cc1cc(C(F)(F)F)n2nc(N)c(/N=N/c3ccccc3)c2n1` had a melting point of 201 to 203 °C.

Molecule `COc1ccc2[nH]c(C)c(CC(=O)O)c2c1` came in with a melting point of 162 to 165 °C.

Molecule `NNC(=O)c1ccc(F)cc1F` yielded a melting point of 141 to 142 °C.

In turn, `CN(C)c1ccc(C(c2ccc(N(C)C)cc2)c2ccc(N(C)C)cc2)cc1` returned a melting point of 180 °C.

`CNC(=C[N+](=O)[O-])NCCSCc1csc(CN(C)C)n1` returned a melting point of 203 °C.

Molecule `CC(C)n1cc(C(N)=S)c(=O)n(Cc2ccccc2)c1=O` gave a melting point of 173 to 175 °C.

As to `CCCCCCOc1ccccc1`, the melting point was -19 °C.

`O=C(N[C@H](Cc1cccc(Br)c1)C(=O)O)OCC1c2ccccc2-c2ccccc21` displayed a melting point of 146 °C.

As for `c1cc(-c2cnc3ccccc3n2)cc(-c2cnc3ccccc3n2)c1`, the melting point fell in the range of 202 to 203 °C.

`O=S(=O)(Cl)c1ccc(Oc2ccccc2)nc1` had a melting point of 114 to 116 °C.

As for `CCCCCOc1ccc(O)cc1`, the melting point was 46 to 49 °C.

`Cc1c(C(C)C2NCC(C)CC2O)ccc2c1CC1C2CC=C2CC(O)CCC21C` (centres undefined) yielded a melting point of 206 °C.

As for `CCOc1ccc(-c2nnc3n2NC(C=Cc2ccccc2)S3)cc1` (centres undefined), the melting point lay within 226 to 228 °C.

In turn, `Cc1c(N=C=O)cccc1N=C=O` displayed a melting point of 18.3 °C.

Molecule `CCC(=O)N(C)C` gave a melting point of -45 °C.

Take `O=S(=O)(Cl)c1sccc1C1OCCO1`: the melting point is 93 to 94 °C.

Consider `O=C(O)C[C@H](C(=O)O)c1ccccc1`, for which the melting point lay within 173 to 176 °C.

For the molecule `Fc1cc(Cl)cc(CBr)c1`, the melting point was 25 to 30 °C.

`Nc1nnc(Br)s1` displayed a melting point of 168 to 169 °C.

Regarding `CN(C)c1ccc(C=C(C#N)c2ccc(Cl)c(Cl)c2)cc1`, the melting point is 213 to 214 °C.

Molecule `O=C(OCc1ccccc1)OCc1ccccc1` gave a melting point of 29 to 33 °C.

`O=C(O)C1CC(=O)N(Cc2ccc(F)cc2)C1` (centres undefined) displayed a melting point of 150 to 151 °C.

For the molecule `CCCCCCOC(=O)CCC`, the melting point is -78 °C.

Consider `CC(C=Cc1ccccc1)=NO`, for which the melting point was 116 to 120 °C.

For the molecule `Cc1csc(-c2cn(C(C)C)c(=O)n(CC(=O)NN)c2=O)n1`, the melting point was in the range of 260 to 263 °C.

In turn, `CC1C(=O)OC2CCN3CC=C(COC(=O)C(C)(O)C1(C)O)C23` (centres undefined) registered a melting point of 197 to 204 °C.

`c1ccc(CON=C(c2cc3ccccc3o2)c2cc3ccccc3o2)cc1` returned a melting point of 127 to 128 °C.

Molecule `Ic1cccc(-c2ccccc2)c1` displayed a melting point of 26.5 °C.

Molecule `CC(C)(C)NC(=O)c1ccccc1` had a melting point of 134 °C.

As for `Cc1nc2ccc(I)cc2s1`, the melting point was 134 to 137 °C.

Take `CCN(C)CC`: the melting point is -196 °C.

Regarding `ICCCCCCI`, the melting point was 9.5 °C.

As to `Cc1cccc(C)c1C(N)=O`, the melting point was in the range of 136 to 138 °C.

`CC1=CC(=O)CC1` came in with a melting point of 3 to 5 °C.

In the case of `C#Cc1ccc(Cl)cc1`, the melting point came out at 45 °C.

Molecule `COc1ccc(C#N)c(Cl)c1OC` displayed a melting point of 102 °C.

Consider `Cc1ccc(N=C2NCCN2)c(Cl)c1`, for which the melting point is 149 °C.

`N#CC1=C(C#N)C(=O)C(NCCCc2ccccc2)=C(Cl)C1=O` gave a melting point of 179 °C.

For the molecule `COc1nc(C)nc(NC(=O)NS(=O)(=O)c2ccccc2Cl)n1`, the melting point was 176 °C.

In turn, `Cc1cc(Br)ncc1I` showed a melting point of 51 °C.

The molecule `O=C1Cc2ccc3ccccc3c21` came in with a melting point of 97 °C.

The molecule `c1ccc(-c2nnc(NC3=NCCN3CN3CCCCC3)s2)cc1` registered a melting point of 133 to 134 °C.

Turning to `Oc1ccc(Cl)c(C(F)(F)F)c1`, the melting point is 44 °C.

`Cn1nc(-c2cccs2)cc1C(=O)Cl` gave a melting point of 113 to 114 °C.

As for `Cc1ccc(N)c(Cl)n1`, the melting point was 88 to 91 °C.

`CCC(=O)C(=O)CC` displayed a melting point of -10 °C.

With `CC=CC(=O)c1ccccc1`, the melting point was 20.5 °C.

Molecule `COc1cc(C=CC(=O)O)ccc1OCc1ccccc1` displayed a melting point of 192 °C.

Molecule `O=Nc1c(-c2ccc([N+](=O)[O-])cc2)nc2ncccn12` displayed a melting point of 191 °C.

Take `COc1ccccc1NC(=O)CC(C)=O`: the melting point was 86 °C.

As to `CCO[Si](Cl)(Cl)Cl`, the melting point was -135 °C.

The molecule `Sc1nc(-c2ccccc2)c(-c2ccccc2)[nH]1` displayed a melting point of 300 °C.

`CC1CC1C` (centres undefined) registered a melting point of -141 °C.

`COc1c(Cl)cc(Cl)c(OC)c1C(N)=O` had a melting point of 148 to 149 °C.

Consider `FC(F)(F)C(F)(Br)C(F)(F)Br` (centres undefined), for which the melting point is -95 °C.

`Nc1c(Cl)c(Cl)cc(Cl)c1Cl` had a melting point of 107 °C.

Molecule `Nc1ccc(CO)cc1` came in with a melting point of 61 °C.

Turning to `COc1ccc(-c2nnc3n2NC(c2ccco2)S3)cc1` (centres undefined), the melting point came out at 161 °C.

`CCOC(=O)CN=C(c1ccccc1)c1ccccc1` showed a melting point of 53 °C.

Take `O=S(=O)(C[C@@H](COCc1ccccc1)OCc1ccccc1)c1ccccc1`: the melting point was 55 to 56 °C.

As for `Cc1nn(-c2ccccc2)nc1C(=O)NNC(=N)C(Cl)(Cl)Cl`, the melting point lay within 197 to 198 °C.

As for `CC(C)N(C(=O)SCC(Cl)=C(Cl)Cl)C(C)C`, the melting point came to 29 °C.

The molecule `CN(C)C1C(=O)C(=C(N)O)C(=O)C2(O)C(=O)C3=C(O)c4c(O)ccc(Cl)c4C(O)C3CC12` (centres undefined) returned a melting point of 222 °C.

The molecule `Cn1c(=O)c(C2=NNC(=O)C2=Cc2cccc(O)c2)c(O)c2ccccc21` came in with a melting point of 290 °C.

`FC(F)(F)c1cc(Cl)c2cccc(Cl)c2n1`: the melting point worked out at 62 °C.

Molecule `O=c1c2ccccc2[nH]c(=S)n1Cc1ccccc1` returned a melting point of 256 to 257 °C.

`O=C(O)c1ccnc(N2CCCCC2)c1` returned a melting point of 167 to 168 °C.

Regarding `Cc1ccc(C2C(C#N)=C(N)Oc3[nH]nc(C(F)(F)F)c32)cc1` (centres undefined), the melting point was found to be 185 °C.

`CC(C)CI` displayed a melting point of -93 °C.

Turning to `O=C(Nc1cc(C(F)(F)F)cc(C(F)(F)F)c1)c1cncc(Cl)n1`, the melting point turned out to be 133 °C.

Molecule `Nc1oncc1-c1ccccn1` returned a melting point of 133 to 136 °C.

The molecule `Fc1c(F)c(Cl)c(F)c(F)c1S` showed a melting point of 47 to 52 °C.

For the molecule `CC(C)(C)OC(=O)NC(CCC(N)=O)C(=O)O` (centres undefined), the melting point came to 119 °C.

Regarding `Cc1c2c(c(C)c3c1CC3=O)C(=O)C2`, the melting point came to 188 °C.

`O=Cc1cc(Br)cc(OC(F)(F)F)c1O` gave a melting point of 46 °C.

In the case of `CC(=O)NC1C(O)CC(O)(C(=O)O)OC1C(O)C(O)CO` (centres undefined), the melting point was in the range of 184 to 186 °C.

Regarding `O=C1CCCCO1`, the melting point was -13 °C.

`Nc1ccnc(Cl)c1` gave a melting point of 93 °C.

For the origin of these results see a melting point compilation (Tetko et al.).
